Test: Displacement of [3H]vesamicol from VAChT receptor in torpedo electrical organ synaptic vesicle

Q: With O=C(CN1C2CCC1CC(c1ccccc1)C2)c1ccc(F)cc1 (stereo not drawn) as the compound, how does the Ki read?
A: 3400 nM

Q: With O[C@@H]1C[C@H]2CCCC[C@@H]2C[C@H]1N1CCC(c2ccccc2)CC1 as the compound, how does the Ki read?
A: 0.009 nM

Q: For O[C@@H]1CCCC[C@H]1N1CCC(c2ccccc2)CC1 (relative stereo) [VESAMICOL], which Ki is on record?
A: 7.6 nM

— ChEMBL document CHEMBL1145554, “First CoMFA characterization of vesamicol analogs as ligands for the vesicular acetylcholine transporter” (J Med Chem, 2008)
